Assays:
Type in all cases: functional, cell-based
[1] = Antiproliferative activity against burkit lymphoma cell line (ST-486 cells) using MTT assay; settings: Homo sapiens
LoVo = assay: Antiproliferative activity against human colon cancer cell line (LoVo cells) using MTT assay
HUVEC = assay: Antiproliferative activity against human umbilical vein endothelial cells (HUVECs) using MTT assay
DLD-1 = assay: Antiproliferative activity against human colon cancer cell line (DLD-1 cells) using MTT assay

IC50 (LoVo) [µM] | IC50 (DLD-1) [µM] | Structure (SMILES) | IC50 [1] [µM] | IC50 (HUVEC) [µM]
> 100 | > 100 | CN(C)CCOCCn1cc(C2=C(c3c[nH]c4ccccc34)C(=O)N(CCN(C)C)C2=O)c2ccccc21 | 30 | 25
20 | 6 | O=C1NC(=O)C(c2cn(CCOCCO)c3ccccc23)=C1c1c[nH]c2ccccc12 | 2 | 2
– | – | Cc1ccc(C(=O)Nc2ccc(S(=O)(=O)O)c3cc(S(=O)(=O)O)cc(S(=O)(=O)O)c23)cc1NC(=O)c1cccc(NC(=O)Nc2cccc(C(=O)Nc3cc(C(=O)Nc4ccc(S(=O)(=O)O)c5cc(S(=O)(=O)O)cc(S(=O)(=O)O)c45)ccc3C)c2)c1 [SURAMIN] | – | 500
7 | 40 | CN(C)CCN1C(=O)C(c2c[nH]c3ccccc23)=C(c2cn(CCOCCO)c3ccccc23)C1=O | 10 | 7
> 100 | > 100 | CN(C)CCN1C(=O)C(c2c[nH]c3ccccc23)=C(c2c[nH]c3ccccc23)C1=O | > 100 | 30
> 100 | > 100 | CNCCOCCn1cc(C2=C(c3c[nH]c4ccccc34)C(=O)N(CCN(C)C)C2=O)c2ccccc21 | 20 | 50
> 100 | > 100 | CN(C)CCOCCn1cc(C2=C(c3c[nH]c4ccccc34)C(=O)NC2=O)c2ccccc21 | 10 | 20

Structure (SMILES) | IC50 (LoVo) [µM] | IC50 (DLD-1) [µM] | IC50 [1] [µM] | IC50 (HUVEC) [µM]
CN[C@@H]1C[C@H]2O[C@@](C)([C@@H]1OC)n1c3ccccc3c3c4c(c5c6ccccc6n2c5c31)C(=O)NC4 [STAUROSPORINE] | – | 0.009 | 0.007 | 0.004
